According to article PMC8095314 (ChemistryOpen, 2021):
“And” between values parts separate entries of the source, which are not always exact repeats. Identical values can stand only once.

Assays:
recombinant human CA XII [1] = molecular target: T1, recombinant human CA XII (Homo sapiens, UniProt O43570); assay type: binding; details: from FTSA Kd
recombinant human CA II = recombinant human CA II (Homo sapiens, UniProt P00918); details: read-out: Kd CA II (FTSA); observed, pH 7.0, 37 °C; cited from earlier work
recombinant human CA XII [2] = molecular target: T1, recombinant human CA XII; details: read-out: Kd CA XII (FTSA); observed, pH 7.0, 37 °C; cited from earlier work
chCA XII = chCA XII (Homo sapiens, UniProt P00918, A65S/F130A/I91T/L203N/N67K/V134S); assay: Fluorescent thermal shift assay
His64 = assay: kinetics; details: cited from earlier work

T1 sequence (O43570 25-354): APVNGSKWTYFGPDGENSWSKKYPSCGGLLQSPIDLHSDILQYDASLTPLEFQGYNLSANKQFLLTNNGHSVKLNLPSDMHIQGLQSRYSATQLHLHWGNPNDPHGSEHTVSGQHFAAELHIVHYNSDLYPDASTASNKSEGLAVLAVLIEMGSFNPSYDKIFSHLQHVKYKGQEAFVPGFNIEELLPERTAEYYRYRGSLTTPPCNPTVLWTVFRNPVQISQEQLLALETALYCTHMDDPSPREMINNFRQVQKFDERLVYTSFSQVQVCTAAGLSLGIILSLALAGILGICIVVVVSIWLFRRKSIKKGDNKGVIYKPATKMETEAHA

| Kd ratio CA XII/CA II (recombinant human CA XII [1]) | Kd (chCA XII) [µM] | Compound | Kd (recombinant human CA II) [µM] | Kd (recombinant human CA XII [2]) [µM] | pKa (His64) |
| --- | --- | --- | --- | --- | --- |
| 8.2 | 6.7 | NS(=O)(=O)c1ccc2ccccc2c1 [Compound 37, naphthalene‐2‐sulfonamide] | 0.77 | 6.3 | – |
| – | – | Carbonic anhydrase XII (CA XII) (Homo sapiens) | – | – | 8.0±0.2 and 7.5±0.1 |
